Results on 19 molecules are retold here after patent US9499534B2, “Thiazole-substituted aminopyrimidines as spleen tyrosine kinase inhibitors” (priority 2013, dated 2016).

For this test, the target named is recombinant human GST-SYK (Homo sapiens (Human), UniProt P43405). The experiment in a line: Homogeneous Time-Resolved Fluorescence (HTRF) Assay for the Recombinant Human Syk Enzyme. Format: biochemical. As to conditions: GST-SYK 5 pM, ATP 25 μM, biotinylated substrate peptide 250 nM, HTRF signal. On the procedure:
Homogeneous Time-Resolved Fluorescence (HTRF) Assay for the Recombinant Human Syk Enzyme
A recombinant GST-hSYK fusion protein was used to measure potency of compounds to inhibit human Syk activity. The recombinant human GST-SYK (Carna Biosciences #08-176) (5 pM final concentration) was incubated with various concentrations of the inhibitor diluted in DMSO (0.1% final concentration) for 10 minutes at room temperature in 15 mM Tris-HCl (pH 7.5), 0.01% tween 20, 2 mM DTT in 384 well plate format. To initiate the reaction the biotinylated substrate peptide (250 nM final concentration) that contains the phosphorylation site for Syk was added with magnesium (5 mM final concentration) and ATP (25 μM final concentration). Final volume of the reaction was 10 μL. Phosphorylation of the peptide was allowed to proceed for 45′ at room temperature. To quench the reaction and detect the phosphorylated product, 2 nM of a Europium-anti-phosphotyrosine antibody (Perkin Elmer #AD0161) and 70 nM SA-APC (Perkin-Elmer #CR130-100) were added together in 15 mM Tris pH 7.5, 40 mM EDTA, 0.01% tween 20. Final volume of the quenching solution was 10 μL.
The resulting HTRF signal was measured after 30 minutes on an EnVision (Perkin-Elmer) reader using a time-resolved fluorescence protocol. Table A below lists activities as IC50 values (nM) for representative compounds of the invention.
(In general: TR-FRET usually uses a lanthanide donor and a delayed reading to cut background.)

A word on the IC50: it is the midpoint of a concentration-inhibition curve. For the molecule `CCOC(=O)[C@H]1CC[C@](O)(c2ncc(-c3cc(Nc4nccc(C(F)(F)F)n4)cc(-c4cn[nH]c4)c3)s2)C[C@H]1C` (racemic) [Example 1.1, Ethyl rel-(1S,2R,4R or S)-4-(5-(3-(1H-pyrazol-4-yl)-5-((4-(trifluoromethyl)pyrimidin-2-yl)amino)phenyl)thiazol-2-yl)-4-hydroxy-2-methylcyclohexanecarboxylate], the IC50 was found to be 162 nM. Then `C[C@@H]1C[C@@](O)(c2ncc(-c3cc(Nc4nccc(C(F)(F)F)n4)cc(-c4cn[nH]c4)c3)s2)CC[C@@H]1C(=O)O` (racemic) [Example 1.2, rel-(1S,2R,4R or S)-4-(5-(3-(1H-pyrazol-4-yl)-5-((4-(trifluoromethyl)pyrimidin-2-yl)amino)phenyl)thiazol-2-yl)-4-hydroxy-2-methylcyclohexanecarboxylic acid], with 0.959 nM; and `C[C@@H]1C[C@@](O)(c2ncc(-c3cc(Nc4nccc(C(F)(F)F)n4)cc(-c4cn[nH]c4)c3)s2)CC[C@@H]1C(N)=O` (racemic) [Example 1.3, rel-(1S,2R,4R or S)-4-(5-(3-(1H-pyrazol-4-yl)-5-((4-(trifluoromethyl)pyrimidin-2-yl)amino)phenyl)thiazol-2-yl)-4-hydroxy-2-methylcyclohexanecarboxamide], with 2.95 nM.

Take `COc1cc(Nc2nccc(C(F)(F)F)n2)cc(-c2cnc([C@@]3(O)CC[C@H](C(=O)O)C(C)(C)C3)s2)c1` (single isomer, unassigned) [Example 1.5, (1R,4S or 1S,4R) 4-Hydroxy-4-(5-(3-methoxy-5-((4-(trifluoromethyl)pyrimidin-2-yl)amino)phenyl)thiazol-2-yl)-2,2-dimethylcyclohexanecarboxylic acid]: the IC50 turned out to be 1.4 nM. Then `CC1(C)CC(O)(c2ncc(-c3cc(C#N)cc(Nc4nccc(C(F)(F)F)n4)c3)s2)CCC1C(=O)O` (single isomer, unassigned) [Example 1.8, (1R,4S or 1S,4R)-4-[5-(3-cyano-5-{[4-(trifluoromethyl)pyrimidin-2-yl]amino}phenyl)-1,3-thiazol-2-yl]-4-hydroxy-2,2-dimethylcyclohexanecarboxylic acid], with 5.77 nM; and `CC1(C)CC(O)(c2ncc(-c3cc(Nc4nccc(C(F)(F)F)n4)cc(S(C)(=O)=O)c3)s2)CCC1C(=O)O` (single isomer, unassigned) [Example 1.9, (1R,4S or 1S,4R)-4-hydroxy-2,2-dimethyl-4-{5-[3-(methylsulfonyl)-5-{[4-(trifluoromethyl)pyrimidin-2-yl]amino}phenyl]-1,3-thiazol-2-yl}cyclohexanecarboxylic acid], with 5.1 nM.

Turning to `Cn1cc(-c2cc(Nc3nccc(C(F)(F)F)n3)cc(-c3cnc([C@@]4(O)CC[C@H](C(=O)O)C(C)(C)C4)s3)c2)cn1` (single isomer, unassigned) [Example 2.1, (1R,4S or 1S,4R)-4-Hydroxy-2,2-dimethyl-4-(5-(3-(1-methyl-1H-pyrazol-4-yl)-5-((4-(trifluoromethyl)pyrimidin-2-yl)amino)phenyl)thiazol-2-yl)cyclohexanecarboxylic acid], the IC50 was determined as 48 nM.

On to `CC1(C)C[C@](O)(c2ncc(-c3cc(Nc4nccc(C(F)(F)F)n4)cc(-c4cnn(C(C)(C)C)c4)c3)s2)CC[C@H]1C(=O)O` (single isomer, unassigned) [Example 2.2, (1R,4S or 1S,4R)-4-{5-[3-(1-tert-butyl-1H-pyrazol-4-yl)-5-{[4-(trifluoromethyl)pyrimidin-2-yl]amino}phenyl]-1,3-thiazol-2-yl}-4-hydroxy-2,2-dimethylcyclohexanecarboxylic acid], for which the IC50 is 285 nM.

With `CC(C)n1cc(-c2cc(Nc3nccc(C(F)(F)F)n3)cc(-c3cnc([C@]4(O)CC[C@@H](C(=O)O)C(C)(C)C4)s3)c2)cn1` (single isomer, unassigned) [Example 2.3, (1R,4S or 1S,4R)-4-hydroxy-2,2-dimethyl-4-[5-(3-[1-(1-methylethyl)-1H-pyrazol-4-yl]-5-{[4-(trifluoromethyl)pyrimidin-2-yl]amino}phenyl)-1,3-thiazol-2-yl]cyclohexanecarboxylic acid], the IC50 was found to be 149 nM. As to `CCn1cc(-c2cc(Nc3nccc(C(F)(F)F)n3)cc(-c3cnc([C@]4(O)CC[C@@H](C(=O)O)C(C)(C)C4)s3)c2)cn1` (single isomer, unassigned) [Example 2.4, (1R,4S or 1S,4R)-4-{5-3-(1-ethyl-1H-pyrazol-4-yl)-5-{[4-(trifluoromethyl)pyrimidin-2-yl]amino}phenyl]-1,3-thiazol-2-yl}-4-hydroxy-2,2-dimethylcyclohexanecarboxylic acid], the IC50 turned out to be 63.5 nM.

For `CC1(C)C[C@](O)(c2ncc(-c3cc(Nc4nccc(C(F)(F)F)n4)cc(-c4ccncc4)c3)s2)CC[C@H]1C(=O)O` (single isomer, unassigned) [Example 2.5, (1R,4S or 1S,4R)-4-hydroxy-2,2-dimethyl-4-[5-(3-pyridin-4-yl-5-{[4-(trifluoromethyl)pyrimidin-2-yl]amino}phenyl)-1,3-thiazol-2-yl]cyclohexanecarboxylic acid], the IC50 is 1.56 nM. Take `CC1(C)C[C@](O)(c2ncc(-c3cc(Nc4nccc(C(F)(F)F)n4)cc(-c4ccc(F)cc4)c3)s2)CC[C@H]1C(=O)O` (single isomer, unassigned) [Example 2.6, (1R,4S or 1S,4R)-4-[5-(4′-fluoro-5-{[4-(trifluoromethyl)pyrimidin-2-yl]amino}biphenyl-3-yl)-1,3-thiazol-2-yl]-4-hydroxy-2,2-dimethylcyclohexanecarboxylic acid]: the half-maximal inhibitory concentration (IC50) was 20.7 nM. Then `COc1ccc(-c2cc(Nc3nccc(C(F)(F)F)n3)cc(-c3cnc([C@]4(O)CC[C@@H](C(=O)O)C(C)(C)C4)s3)c2)cn1` (single isomer, unassigned) [Example 2.7, (1R,4S or 1S,4R)-4-hydroxy-4-{5-[3-(6-methoxypyridin-3-yl)-5-{[4-(trifluoromethyl)pyrimidin-2-yl]amino}phenyl]-1,3-thiazol-2-yl}-2,2-dimethylcyclohexanecarboxylic acid], with 3.68 nM; and `CC1(C)C[C@](O)(c2ncc(-c3cc(Nc4nccc(C(F)(F)F)n4)cc(-c4ccsc4)c3)s2)CC[C@H]1C(=O)O` (single isomer, unassigned) [Example 2.8, (1R,4S or 1S,4R)-4-hydroxy-2,2-dimethyl-4-[5-(3-thiophen-3-yl-5-{[4-(trifluoromethyl)pyrimidin-2-yl]amino}phenyl)-1,3-thiazol-2-yl]cyclohexanecarboxylic acid], with 11.7 nM; and `CC1(C)C[C@](O)(c2ncc(-c3cc(Nc4nccc(C(F)(F)F)n4)cc(-c4cccc(C(=O)NC5CC5)c4)c3)s2)CC[C@H]1C(=O)O` (single isomer, unassigned) [Example 2.9, (1R,4S or 1S,4R)-4-{5-[3′-(cyclopropylcarbamoyl)-5-{[4-(trifluoromethyl)pyrimidin-2-yl]amino}biphenyl-3-yl]-1,3-thiazol-2-yl}-4-hydroxy-2,2-dimethylcyclohexanecarboxylic acid], with 2.78 nM.

For the molecule `CC1(C)C[C@](O)(c2ncc(-c3cc(Nc4nccc(C(F)(F)F)n4)cc(-c4cn[nH]c4)c3)s2)CC[C@H]1C(=O)O` (single isomer, unassigned) [Example 2.10, (1R,4S or 1S,4R)-4-hydroxy-2,2-dimethyl-4-{5-[3-(1H-pyrazol-4-yl)-5-{[4-(trifluoromethyl)pyrimidin-2-yl]amino}phenyl]-1,3-thiazol-2-yl}cyclohexanecarboxylic acid], the IC50 is 2.38 nM.

For the molecule `CC1(C)C[C@](O)(c2ncc(-c3cc(Nc4nccc(C(F)(F)F)n4)cc(-c4cc[nH]n4)c3)s2)CC[C@H]1C(=O)O` (single isomer, unassigned) [Example 2.11, (1R,4S or 1S,4R)-4-hydroxy-2,2-dimethyl-4-{5-[3-(1H-pyrazol-3-yl)-5-{[4-(trifluoromethyl)pyrimidin-2-yl]amino}phenyl]-1,3-thiazol-2-yl}cyclohexanecarboxylic acid], the IC50 turned out to be 1.11 nM.

With `COc1ccc(-c2cc(Nc3nccc(C(F)(F)F)n3)cc(-c3cnc([C@]4(O)CC[C@@H](C(=O)O)C(C)(C)C4)s3)c2)cc1F` (single isomer, unassigned) [Example 2.12, (1R,4S or 1S,4R)-4-[5-(3′-fluoro-4′-methoxy-5-{[4-(trifluoromethyl)pyrimidin-2-yl]amino}biphenyl-3-yl)-1,3-thiazol-2-yl]-4-hydroxy-2,2-dimethylcyclohexanecarboxylic acid], the IC50 came to 35.3 nM. For the molecule `CC1(C)C[C@](O)(c2ncc(-c3cc(Nc4nccc(C(F)(F)F)n4)cc(-c4cccc(F)c4F)c3)s2)CC[C@H]1C(=O)O` (single isomer, unassigned) [Example 2.14, (1R,4S or 1S,4R)-4-[5-(2′,3′-difluoro-5-{[4-(trifluoromethyl)pyrimidin-2-yl]amino}biphenyl-3-yl)-1,3-thiazol-2-yl]-4-hydroxy-2,2-dimethylcyclohexanecarboxylic acid], the IC50 came out at 12.9 nM.
